This passage reports IC50 results from patent US9914730B2, “Azaquinazoline inhibitors of Atypical protein Kinase C” (Ignyta, Inc., priority 2012, dated 2018).

SMILES strings stand for the structures. A value given as a limit tells only on which side of the number the result lay.

This experiment addresses T1, full-length human PKCι (Homo sapiens, UniProt P41743).
T1 construct: Recombinant, full-length human PKCι expressed in Sf21 insect cells is also commercially available; purchased; host or cells: Sf21 insect cells
T1 sequence (P41743 1-596): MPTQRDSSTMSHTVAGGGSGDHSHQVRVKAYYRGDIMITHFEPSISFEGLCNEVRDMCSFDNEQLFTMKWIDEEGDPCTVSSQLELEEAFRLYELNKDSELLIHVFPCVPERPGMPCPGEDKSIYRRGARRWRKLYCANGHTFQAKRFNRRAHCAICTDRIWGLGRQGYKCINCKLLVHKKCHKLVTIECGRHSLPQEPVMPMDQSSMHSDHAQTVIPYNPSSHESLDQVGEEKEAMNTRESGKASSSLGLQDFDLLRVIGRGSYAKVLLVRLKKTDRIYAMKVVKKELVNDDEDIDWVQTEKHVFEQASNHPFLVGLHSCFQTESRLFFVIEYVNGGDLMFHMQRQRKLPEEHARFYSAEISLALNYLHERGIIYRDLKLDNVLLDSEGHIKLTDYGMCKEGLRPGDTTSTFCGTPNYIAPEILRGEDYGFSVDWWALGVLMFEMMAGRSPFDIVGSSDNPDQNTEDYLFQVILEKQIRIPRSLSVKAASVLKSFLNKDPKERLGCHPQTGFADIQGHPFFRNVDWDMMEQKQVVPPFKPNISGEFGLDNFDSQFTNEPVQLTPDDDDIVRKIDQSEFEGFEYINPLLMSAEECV
Kind of experiment: PKCι IC50 IMAP assay, full-length PKCι at 150 μM ATP. The format is biochemical. The conditions noted are these: read-out: IC50 in IMAP assay against full length PKCi at 150 μM ATP. In outline: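 Recombinant full-length human PKCι (Sf21-expressed, typically 15 pM) phosphorylated 100 nM 5FAM-labelled PKCε pseudosubstrate-derived peptide with 150 μM ATP (5× KM^APP) in 18 mM tris-HCl pH7.5, 9 mM MgCl2, EGTA, DTT, 4% DMSO. After 60 min at room temperature, IMAP binding reagent was added for 2 h and fluorescence polarisation read.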

One may read the IC50 as the concentration that gives 50% inhibition. On to `N#Cc1ccnc(Nc2cc(-c3nc(N4CCN[C@@H](CF)C4)c4c(C5CC5)cncc4n3)ccn2)c1` [Example 530, 2-{4-[5-Cyclopropyl-4-((R)-3-fluoromethyl-piperazin-1-yl)-pyrido[3,4-d]-pyrimidin-2-yl]-pyridin-2-ylamino}-iso-nicotinonitrile], for which the IC50 is less than 100 nM.

Regarding `c1ccc(-c2ccc(Nc3cc(-c4nc(N[C@@H]5CCNC5)c5ccncc5n4)ccn3)nc2)cc1` [Example 318, {2-[2-(5-Phenyl-pyridin-2-ylamino)-pyridin-4-yl]-pyrido[3,4-d]pyrimidin-4-yl}-(R)-pyrrolidin-3-yl-amine], the IC50 is less than 100 nM.

For `Fc1cccc(F)c1Nc1cc(-c2nc(NC3CCNCC3)c3c(C4CC4)cncc3n2)ccn1` [Example 790, {5-Cyclopropyl-2-[2-(2,6-difluoro-phenylamino)-pyridin-4-yl]-pyrido[3,4-d]pyrimidin-4-yl}-piperidin-4-yl-amine], the IC50 is less than 100 nM.

For the compound `Clc1cccc(Nc2cc(-c3nc(N4CCNCC4)c4c(C5CC5)cncc4n3)ccn2)c1Cl` [Example 542, [4-(5-Cyclopropyl-4-piperazin-1-yl-pyrido[3,4-d]pyrimidin-2-yl)-pyridin-2-yl]-(2,3-dichloro-phenyl)-amine], the IC50 was 100 to 1000 nM.

`COc1cncc2nc(-c3ccnc(Nc4cccc(F)n4)c3)nc(N3CCNCC3)c12` [Example 447, (6-Fluoro-pyridin-2-yl)-[4-(5-methoxy-4-piperazin-1-yl-pyrido[3,4-d]pyrimidin-2-yl)-pyridin-2-yl]-amine]: the IC50 is less than 100 nM.

In the case of `N#Cc1ccnc(Nc2cc(-c3nc(N[C@@H]4CCNC4)c4ccncc4n3)ccn2)c1` [Example 321, 2-{4-[4-((R)-Pyrrolidin-3-ylamino)-pyrido[3,4-d]pyrimidin-2-yl]-pyridin-2-ylamino}-isonicotinonitrile], the IC50 is less than 100 nM.

`CC(=O)Nc1cc(-c2nc(N3CCN[C@@H](COCc4ccccc4)C3)c3c(C4CC4)cncc3n2)ccn1` [Example 768, N-{4-[4-((R)-3-Benzyloxymethyl-piperazin-1-yl)-5-cyclopropyl-pyrido[3,4-d]pyrimidin-2-yl]-pyridin-2-yl}-acetamide]: the IC50 is less than 100 nM.

On to `c1ccc2c(Nc3cc(-c4nc(N5CCNCC5)c5c(C6CC6)cncc5n4)ccn3)cccc2c1` [Example 2059, [4-(5-Cyclopropyl-4-piperazin-1-yl-pyrido[3,4-d]pyrimidin-2-yl)-pyridin-2-yl]-naphthalen-1-yl-amine], for which the IC50 was less than 100 nM.

Take `COc1cncc2nc(-c3ccnc(Nc4ccccc4)c3)nc(N3CCN[C@@H](CO)C3)c12` [Example 434, {(R)-4-[5-Methoxy-2-(2-phenylamino-pyridin-4-yl)-pyrido[3,4-d]pyrimidin-4-yl]-piperazin-2-yl}-methanol]: the IC50 was less than 100 nM.

For the compound `CN1CCN(c2cccc(Nc3cc(-c4nc(N5CCC(O)C(O)C5)c5c(C6CC6)cncc5n4)ccn3)c2)CC1` (single isomer, unassigned) [Example 752, (3R,4S or 3R,4S)-1-(5-Cyclopropyl-2-{2-[3-(4-methyl-piperazin-1-yl)-phenylamino]-pyridin-4-yl}-pyrido[3,4-d]pyrimidin-4-yl)-piperidine-3,4-diol], the IC50 is less than 100 nM.

With `Fc1cccc2c1[nH]c1nccc(-c3nc(N4CCNCC4)c4c(C5CC5)cncc4n3)c12` [Example 2031, 4-(5-Cyclopropyl-4-piperazin-1-yl-pyrido[3,4-d]pyrimidin-2-yl)-8-fluoro-9H-pyrido[2,3-b]indole], the IC50 is less than 100 nM.

As for `Cc1ccc(Nc2cc(-c3nc(N4CCNCC4)c4c(C5CC5)cncc4n3)ccn2)c(Cl)c1` [Example 572, (2-Chloro-4-methyl-phenyl)-[4-(5-cyclopropyl-4-piperazin-1-yl-pyrido[3,4-d]pyrimidin-2-yl)-pyridin-2-yl]-amine], the IC50 is less than 100 nM.

For the compound `Fc1cnc(Nc2cc(-c3nc(N4CCNCC4)c4c(C(F)(F)F)cncc4n3)ccn2)c(F)c1` [Example 2194, (3,5-Difluoro-pyridin-2-yl)-[4-(4-piperazin-1-yl-5-trifluoromethyl-pyrido[3,4-d]pyrimidin-2-yl)-pyridin-2-yl]-amine], the IC50 is less than 100 nM.

For the compound `Fc1cc(F)c2nc(Nc3cc(-c4nc(N5CCNCC5)c5c(C6CC6)cncc5n4)ccn3)nn2c1` [Example 2040, [4-(5-Cyclopropyl-4-piperazin-1-yl-pyrido[3,4-d]pyrimidin-2-yl)-pyridin-2-yl]-(6,8-difluoro-[1,2,4]triazolo[1,5-a]pyridin-2-yl)-amine], the IC50 was less than 100 nM.

As to `COc1cncc2nc(-c3ccnc(Nc4cnccn4)c3)nc(N[C@@H]3CCNC3)c12` [Example 239, {5-Methoxy-2-[2-(pyrazin-2-ylamino)-pyridin-4-yl]-pyrido[3,4-d]pyrimidin-4-yl}-(R)-pyrrolidin-3-yl-amine], the IC50 is less than 100 nM.

With `CS(=O)(=O)C[C@H]1CN(c2nc(-c3ccnc(Nc4ccccc4)c3)nc3cncc(C4CC4)c23)CCN1` [Example 769, {4-[5-Cyclopropyl-4-((R)-3-methanesulfonyl-methyl-piperazin-1-yl)-pyrido[3,4-d]pyrimidin-2-yl]-pyridin-2-yl}-phenyl-amine], the IC50 was less than 100 nM.

As to `c1cc(-c2nc(N3CCCNCC3)c3ccncc3n2)ccn1` [Example 33, 1-[2-(pyridin-4-yl)-pyrido[3,4-d]-pyrimidin-4-yl]-1,4-diazepane], the IC50 fell in the range of 1000 to 10000 nM.

With `C[C@@H](Nc1cc(-c2nc(N3CCNCC3)c3c(C4CC4)cncc3n2)ccn1)c1cccc(F)c1` [Example 644, [4-(5-Cyclopropyl-4-piperazin-1-yl-pyrido[3,4-d]pyrimidin-2-yl)-pyridin-2-yl]-[(R)-1-(3-fluoro-phenyl)-ethyl]-amine], the IC50 is less than 100 nM.

On to `Fc1ccccc1Nc1cc(-c2nc(N3CCN[C@@H](C4CC4)C3)c3c(C4CC4)cncc3n2)ccn1` [Example 276, {4-[5-Cyclopropyl-4-((S)-3-cyclopropyl-piperazin-1-yl)-pyrido[3,4-d]pyrimidin-2-yl]-pyridin-2-yl}-(2 fluoro-phenyl)-amine], for which the IC50 is less than 100 nM.

For the compound `COc1cccc(Nc2cc(-c3nc(N4CCNCC4)c4c(C5CC5)cncc4n3)ccn2)c1` [Example 571, [4-(5-Cyclopropyl-4-piperazin-1-yl-pyrido[3,4-d]pyrimidin-2-yl)-pyridin-2-yl]-(3-methoxy-phenyl)-amine], the IC50 was less than 100 nM.

With `c1cc(-c2nc(N3CCNCC3)c3c(C4CCC4)cncc3n2)cc(NC2CCOCC2)n1` [Example 2210, [4-(5-Cyclobutyl-4-piperazin-1-yl-pyrido[3,4-d]pyrimidin-2-yl)-pyridin-2-yl]-(tetrahydro-pyran-4-yl)-amine], the IC50 was less than 100 nM.

Regarding `C[C@H]1CN(c2nc(-c3ccnc(Nc4ccccc4F)c3)nc3cncc(C4CC4)c23)CCN1` [Example 691, {4-[5-Cyclopropyl-4-((S)-3-methyl-piperazin-1-yl)-pyrido[3,4-d]pyrimidin-2-yl]-pyridin-2-yl}-(2-fluoro-phenyl)-amine], the IC50 was less than 100 nM.

Consider `COc1cncc2nc(-c3ccnc(Nc4ccc(C)cn4)c3)nc(N3CCNCC3)c12` [Example 364, [4-(5-Methoxy-4-piperazin-1-yl-pyrido[3,4-d]pyrimidin-2-yl)-pyridin-2-yl]-(5-methyl-pyridin-2-yl)-amine], for which the IC50 was less than 100 nM.

For `OCC1CN(c2nc(-c3ccnc4[nH]c(C(F)(F)F)cc34)nc3cncc(C4CC4)c23)C1` [Example 1243, {1-[5-Cyclopropyl-2-(2-tritluoromethyl-1H-pyrrolo[2,3-b]pyridin-4-yl)-pyrido[3,4-d]pyrimidin-4-yl]-azetidin-3-yl}-methanol], the IC50 is 1000 to 10000 nM.

In the case of `NC(=O)c1ccc(Nc2cc(-c3nc(N4CCNCC4)c4c(C5CC5)cncc4n3)ccn2)nc1` [Example 844, 6-[4-(5-Cyclopropyl-4-piperazin-1-yl-pyrido[3,4-d]pyrimidin-2-yl)-pyridin-2-ylamino]-nicotinamide], the IC50 was less than 100 nM.

Turning to `N[C@H](CNc1nc(-c2ccncc2)nc2c(-c3ccncc3)nccc12)Cc1ccccc1` [Example 100, N-[(2S)-2-amino-3-phenylpropyl]-2,8-bis(pyridin-4-yl)pyrido[3,4-d]pyrimidin-4-amine], the concentration for half-maximal inhibition (IC50) was 100 to 1000 nM.

Turning to `COc1cncc2nc(-c3ccncc3)nc(N3CCCCC3)c12` [Example 151, 5-Methoxy-4-piperidin-1-yl-2-pyridin-4-yl-pyrido[3,4-d]pyrimidine], the IC50 was in the range of 100 to 1000 nM.

`CCc1cccc(Nc2cc(-c3nc(N4CCNCC4)c4c(C5CC5)cncc4n3)ccn2)c1` [Example 623, [4-(5-Cyclopropyl-4-piperazin-1-yl-pyrido[3,4-d]pyrimidin-2-yl)-pyridin-2-yl]-(3-ethyl-phenyl)-amine]: the half-maximal inhibitory concentration (IC50) is less than 100 nM.

For the compound `COc1ccc(F)c(Nc2cc(-c3nc(N4CCNCC4)c4c(C5CC5)cncc4n3)ccn2)c1Cl` [Example 634, (2-Chloro-6-fluoro-3-methoxy-phenyl)-[4-(5-cyclopropyl-4-piperazin-1-yl-pyrido[3,4-d]pyrimidin-2-yl)-pyridin-2-yl]-amine], the IC50 was less than 100 nM.
